Tested on: ICR mice
Assay: Thromboplastin-induced fatal thromboembolism in mice
Format: in vivo
Conditions: N=10
Experimental: The mice were challenged with 25 mg/kg thromboplastin (Sigma, St. Louis, Mo.) via a bolus i.v. injection in to the tail vein as previously described (Sato et al., 1998). At the time of thromboembolism-related death, after the thromboplastin injection or elective sacrifice at 48 hours using ketamine/xylazine, all mice were perfused with PBS followed by 4% phosphate buffered formalin. PBS and formalin were pumped through the left ventricle of the heart and allowed to exit through a 3 mm incision through the anterior wall of the right ventricle.

Compound: CC(=O)CC(c1ccccc1)c1c(O)c2ccccc2oc1=O (centres unmarked) [warfarin, reference compound]
- probability of event-free survival after thromboplastin challenge (warfarin 3 mg/kg i.p. 18 hours prior): 10±9%
- median survival time (warfarin 3 mg/kg): 5.3 min

— patent US6589992B2, “Inhibiting collagen-induced platelet aggregation” (Parker Hughes Institute, priority 1999, dated 2003)
